What all share (test): Kinase assay, binding constants (Kd), kinase-tagged T7 phage, qPCR
A general note: Quantitative PCR measures a nucleic acid by following its amplification.

One assay concerns the target FGFR3 (Homo sapiens (Human), UniProt P22607). Here is the method:
(§1) Kinase-tagged T7 phage strains were prepared in an E. coli host derived from the BL21 strain. E. coli were grown to log-phase and infected with T7 phage and incubated with shaking at 32° C. until lysis. The lysates were centrifuged and filtered to remove cell debris. Streptavidin-coated magnetic beads were treated with biotinylated small molecule ligands for 30 minutes at room temperature to generate affinity resins for kinase assays. The liganded beads were blocked with excess biotin and washed with blocking buffer SeaBlock (Pierce), […], 1 mM DTT to remove unbound ligand and to reduce non-specific binding.
(§2) Test compounds were prepared as 111λ stocks in 10000 DMS0. Kds were determined using an 11-point 3-fold compound dilution series with three DMSO control points. […] The compounds were then diluted directly into the assays such that the final concentration of DMSO was 0.9%. All reactions performed in polypropylene 384-well plate. Each was a final volume of 0.02 ml. […] The beads were then re-suspended in elution buffer (1×PBS, 0.05% Tween […] non-biotinylated affinity ligand) and incubated at room temperature with shaking for 30 minutes. The kinase concentration in the eluates was measured by qPCR.
(§3) Binding constants were calculated with a standard dose-response curve using the Hill equation: […]
(§4) The Hill Slope was set to −1. Curves were fitted using a non-linear least square fit with the Levenberg-Marquardt algorithm.

The next assay addresses FGFR1 (Homo sapiens (Human), UniProt P11362). Here is the method: as §1, §2, §3, §4
A further assay has as its target FGFR4 (Homo sapiens (Human), UniProt P22455). The procedure:
as §1, §2, §3, §4

A further assay has as its target FGFR2 (Homo sapiens (Human), UniProt P21802). Here is the method:
as §1, §2, §3, §4

The next assay addresses FGFR3 (V555M) (Homo sapiens (Human), UniProt P22607, V555M). The conditions noted are these: V555M mutant. The procedure: as §1, §2, §3, §4

Each structure is given as a SMILES string.

FGFR3 (V555M), sequence (P22607 23-806 V555M): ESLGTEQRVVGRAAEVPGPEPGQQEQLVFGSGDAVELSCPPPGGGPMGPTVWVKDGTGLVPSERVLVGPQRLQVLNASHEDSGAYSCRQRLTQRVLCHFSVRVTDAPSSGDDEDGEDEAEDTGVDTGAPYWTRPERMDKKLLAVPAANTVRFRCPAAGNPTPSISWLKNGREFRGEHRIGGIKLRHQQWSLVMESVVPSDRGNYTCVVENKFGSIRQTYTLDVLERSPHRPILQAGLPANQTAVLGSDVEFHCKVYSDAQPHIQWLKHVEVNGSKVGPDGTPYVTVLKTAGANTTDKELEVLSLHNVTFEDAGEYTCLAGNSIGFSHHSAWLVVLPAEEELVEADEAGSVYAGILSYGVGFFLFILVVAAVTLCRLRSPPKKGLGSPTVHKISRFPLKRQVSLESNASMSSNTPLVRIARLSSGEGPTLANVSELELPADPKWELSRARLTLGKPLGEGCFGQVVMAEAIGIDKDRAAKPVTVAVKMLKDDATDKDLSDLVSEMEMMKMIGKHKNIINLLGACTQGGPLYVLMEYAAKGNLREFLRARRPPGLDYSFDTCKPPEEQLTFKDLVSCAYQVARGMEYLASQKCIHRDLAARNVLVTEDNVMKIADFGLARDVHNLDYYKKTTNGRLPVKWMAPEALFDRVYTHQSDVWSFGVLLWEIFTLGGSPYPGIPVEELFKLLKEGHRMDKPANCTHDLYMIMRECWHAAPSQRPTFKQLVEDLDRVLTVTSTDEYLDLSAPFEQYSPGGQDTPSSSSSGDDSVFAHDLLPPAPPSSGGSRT
FGFR4, sequence (P22455 22-802): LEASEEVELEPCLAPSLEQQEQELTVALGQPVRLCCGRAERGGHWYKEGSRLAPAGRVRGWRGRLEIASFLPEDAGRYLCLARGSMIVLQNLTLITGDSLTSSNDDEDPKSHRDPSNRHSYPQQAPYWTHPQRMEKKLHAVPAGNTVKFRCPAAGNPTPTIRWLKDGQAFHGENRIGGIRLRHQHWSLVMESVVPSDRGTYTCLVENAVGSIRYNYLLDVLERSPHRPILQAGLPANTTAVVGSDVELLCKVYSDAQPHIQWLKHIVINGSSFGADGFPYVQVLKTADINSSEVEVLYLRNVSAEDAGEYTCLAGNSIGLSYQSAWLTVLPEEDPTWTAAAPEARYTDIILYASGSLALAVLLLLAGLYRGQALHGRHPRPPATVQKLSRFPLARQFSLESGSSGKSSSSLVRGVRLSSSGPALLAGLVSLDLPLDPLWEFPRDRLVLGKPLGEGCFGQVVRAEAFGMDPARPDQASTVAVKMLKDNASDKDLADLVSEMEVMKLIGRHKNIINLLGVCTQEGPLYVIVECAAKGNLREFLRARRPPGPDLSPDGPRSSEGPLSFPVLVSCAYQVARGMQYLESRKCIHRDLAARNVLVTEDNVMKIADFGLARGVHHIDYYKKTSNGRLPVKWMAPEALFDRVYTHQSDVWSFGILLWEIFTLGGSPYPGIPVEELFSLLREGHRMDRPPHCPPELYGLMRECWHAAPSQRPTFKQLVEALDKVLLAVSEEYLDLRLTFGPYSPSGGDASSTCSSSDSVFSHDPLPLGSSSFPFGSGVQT
FGFR1, sequence (P11362 22-822): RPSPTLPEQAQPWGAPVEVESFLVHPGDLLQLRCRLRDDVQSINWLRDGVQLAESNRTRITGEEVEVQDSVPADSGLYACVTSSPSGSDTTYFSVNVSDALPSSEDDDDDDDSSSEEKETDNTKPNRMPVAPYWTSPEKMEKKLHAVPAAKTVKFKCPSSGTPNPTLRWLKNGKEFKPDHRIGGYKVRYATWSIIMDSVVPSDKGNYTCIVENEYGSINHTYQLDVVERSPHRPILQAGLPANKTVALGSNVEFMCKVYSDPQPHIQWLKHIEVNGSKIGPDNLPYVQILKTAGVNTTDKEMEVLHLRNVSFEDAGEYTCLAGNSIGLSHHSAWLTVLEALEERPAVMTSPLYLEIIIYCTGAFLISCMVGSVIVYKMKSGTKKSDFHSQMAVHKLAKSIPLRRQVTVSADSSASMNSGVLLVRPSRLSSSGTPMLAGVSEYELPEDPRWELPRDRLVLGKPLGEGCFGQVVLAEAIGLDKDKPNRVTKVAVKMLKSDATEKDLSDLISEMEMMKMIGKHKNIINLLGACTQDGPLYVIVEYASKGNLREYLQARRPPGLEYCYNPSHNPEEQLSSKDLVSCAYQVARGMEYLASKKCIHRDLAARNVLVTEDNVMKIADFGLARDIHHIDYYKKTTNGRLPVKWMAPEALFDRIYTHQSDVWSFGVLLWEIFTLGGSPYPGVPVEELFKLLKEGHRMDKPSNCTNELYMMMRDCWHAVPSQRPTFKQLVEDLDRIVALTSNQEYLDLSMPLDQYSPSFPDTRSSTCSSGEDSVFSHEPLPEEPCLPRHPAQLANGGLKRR
FGFR2, sequence (P21802 22-821): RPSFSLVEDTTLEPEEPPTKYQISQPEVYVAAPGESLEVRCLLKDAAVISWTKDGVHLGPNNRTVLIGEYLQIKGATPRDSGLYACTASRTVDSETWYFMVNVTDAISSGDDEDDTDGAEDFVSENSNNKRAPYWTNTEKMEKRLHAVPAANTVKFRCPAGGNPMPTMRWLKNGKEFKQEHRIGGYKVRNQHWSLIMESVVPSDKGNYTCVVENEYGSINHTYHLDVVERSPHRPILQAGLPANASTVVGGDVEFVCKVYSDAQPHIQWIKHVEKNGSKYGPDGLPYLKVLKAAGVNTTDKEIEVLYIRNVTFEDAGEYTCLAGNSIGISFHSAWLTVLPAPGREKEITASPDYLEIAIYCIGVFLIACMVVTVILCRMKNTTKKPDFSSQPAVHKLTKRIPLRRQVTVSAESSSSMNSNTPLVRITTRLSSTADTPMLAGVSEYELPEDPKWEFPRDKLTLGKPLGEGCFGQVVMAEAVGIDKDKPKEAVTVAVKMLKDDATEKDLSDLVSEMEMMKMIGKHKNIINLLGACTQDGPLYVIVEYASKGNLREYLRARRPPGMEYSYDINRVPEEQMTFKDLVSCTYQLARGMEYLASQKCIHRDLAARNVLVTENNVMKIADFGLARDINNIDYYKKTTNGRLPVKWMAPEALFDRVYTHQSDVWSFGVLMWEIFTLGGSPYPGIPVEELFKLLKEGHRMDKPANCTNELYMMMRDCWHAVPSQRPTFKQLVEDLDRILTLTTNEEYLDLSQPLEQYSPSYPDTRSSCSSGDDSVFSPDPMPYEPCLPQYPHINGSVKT
FGFR3, sequence (P22607 23-806): as the sequence (P22607 23-806 V555M) above, with M533V counted along it

In the case of `C[C@@H](Oc1ccc2[nH]nc(-c3ccc(N4CCN5CCC[C@@H]5C4)nc3)c2c1)c1c(Cl)cncc1Cl` [Example 184, 3-[6-[(8aR)-3,4,6,7,8,8a-hexahydro-1H-pyrrolo[1,2-a]pyrazin-2-yl]-3-pyridyl]-5-[(1R)-1-(3,5-dichloro-4-pyridyl)ethoxy]-1H-indazole], the Kd at FGFR3, on FGFR1, on FGFR4, at FGFR2 and at FGFR3 (V555M) was 1 to 20 nM each time.
For `CCOC(=O)N1CC2(C1)CN(c1ncc(-c3n[nH]c4ccc(O[C@H](C)c5c(Cl)cnc(C)c5Cl)cc34)cn1)C2` [Example 185, ethyl 6-[5-[5-[(1R)-1-(3,5-dichloro-2-methyl-4-pyridyl)ethoxy]-1H-indazol-3-yl]pyrimidin-2-yl]-2,6-diazaspiro[3.3]heptane-2-carboxylate], the Kd is 20 to 100 nM at FGFR3; more than 300 nM at FGFR1; 1 to 20 nM on FGFR4; 100 to 300 nM at FGFR2; 1 to 20 nM on FGFR3 (V555M).
For the molecule `CCS(=O)(=O)N1CCCC2(CN(c3ccc(-c4n[nH]c5ccc(O[C@H](C)c6c(C)cnnc6C)cc45)cn3)C2)C1` [Example 186, 5-[(1R)-1-(3,5-dimethylpyridazin-4-yl)ethoxy]-3-[6-(8-ethylsulfonyl-2,8-diazaspiro[3.5]nonan-2-yl)-3-pyridyl]-1H-indazole], the Kd on FGFR3 is 1 to 20 nM; on FGFR1 it was 100 to 300 nM; at FGFR4, 20 to 100 nM; at FGFR2, 20 to 100 nM; on FGFR3 (V555M), 1 to 20 nM.
Take `COC(=O)N1CCCC2(C1)CN(c1ccc(-c3n[nH]c4ccc(O[C@H](C)c5c(C)cnnc5C)cc34)cn1)C2` [Example 187, methyl 2-[5-[5-[(1R)-1-(3,5-dimethylpyridazin-4-yl)ethoxy]-1H-indazol-3-yl]-2-pyridyl]-2,8-diazaspiro[3.5]nonane-8-carboxylate]: the Kd on FGFR3, on FGFR1, on FGFR4, at FGFR2 and at FGFR3 (V555M) was 1 to 20 nM throughout.
As for `Cc1cnnc(C)c1[C@@H](C)Oc1ccc2[nH]nc(-c3ccc(N4CC5(CCCN(S(C)(=O)=O)C5)C4)nc3)c2c1` [Example 188, 5-[(1R)-1-(3,5-dimethylpyridazin-4-yl)ethoxy]-3-[6-(8-methylsulfonyl-2,8-diazaspiro[3.5]nonan-2-yl)-3-pyridyl]-1H-indazole], the Kd at FGFR3 fell in the range of 1 to 20 nM; on FGFR1, 20 to 100 nM; on FGFR4, 1 to 20 nM; on FGFR2, 1 to 20 nM; on FGFR3 (V555M), 1 to 20 nM.
On to `Cc1cnnc(C)c1[C@@H](C)Oc1ccc2[nH]nc(-c3ccc(N4CC5(CCCN(C(=O)OC(C)C)C5)C4)nc3)c2c1` [Example 189, isopropyl 2-[5-[5-[(1R)-1-(3,5-dimethylpyridazin-4-yl)ethoxy]-1H-indazol-3-yl]-2-pyridyl]-2,8-diazaspiro[3.5]nonane-8-carboxylate], for which the dissociation constant (Kd) on FGFR3 was 1 to 20 nM; on FGFR1 it was 20 to 100 nM; at FGFR4 it was 1 to 20 nM; on FGFR2, 1 to 20 nM; on FGFR3 (V555M) it was 1 to 20 nM.
Regarding `CCOC(=O)N1CC2(C1)CN(c1ccc(-c3n[nH]c4ccc(O[C@H](C)c5c(Cl)cnc(C)c5Cl)cc34)cn1)C2` [Example 190, ethyl 6-[5-[5-[(1R)-1-(3,5-dichloro-2-methyl-4-pyridyl)ethoxy]-1H-indazol-3-yl]-2-pyridyl]-2,6-diazaspiro[3.3]heptane-2-carboxylate], the Kd lay in the range of 1 to 20 nM at FGFR3; 100 to 300 nM at FGFR1; 20 to 100 nM on FGFR4; 100 to 300 nM at FGFR2; 1 to 20 nM on FGFR3 (V555M).

The term Kd denotes the equilibrium constant for the complex coming apart. A lower Kd goes with higher affinity.

Source of the values: patent US20240109865A1, “INDAZOLE COMPOUNDS AS KINASE INHIBITORS” (TYRA BIOSCIENCES, INC., priority 2020, published 2024).
